Like-named read-outs stand apart in the source and are kept apart here.
Experiments:
[1] = tested on: anti-anti-dsDNA (anti-Id) isolated from IVIG; experiment: Direct binding of anti-Id to the synthetic peptides by ELISA; design: species or system human; settings: Table 2
Protocol: (§1) The binding of anti-Id to the peptides was tested by ELISA.
(§2) ELISA plates were coated by 10 ug/ml of peptides in PBS overnight at 4° C. The plates were blocked with 3% BSA for 1hr at 37° C. Anti-Id was added at different concentrations. IgG purified from one donor was used as negative control.
(§3) The binding of the immunoglobulin was probed with goat anti-human IgG conjugated to alkaline phosphatase and the appropriate substrate. Between each step, extensive washings were performed with 0.05% PBS-Tween.
(§4) The same protocol was used as above, but the peptides used in this study were taken from the literature except for peptide number 1 which is the first peptide in the previous experiment.

[2] = tested on: control IgG (IgG purified from one donor); experiment: Direct binding ELISA, negative control immunoglobulin; design: species or system human; settings: Table 2
Protocol: as §1, §2, §3, §4

[3] = tested on: immunoglobulin elution peak from a peptide column bound with peptide 707; experiment: ELISA of peptide column eluate with biotinylated peptides (707 column); format: binding, human; settings: FIG. 4
Protocol: (§5) To measure the binding efficacy of peptide column eluates (706 and 707) the following ELISA was performed:
(§6) Microtiter plates (Costar, USA) were coated overnight at 2-8° C. with 10 μg/ml NeutrAvidin (Pierce, USA) suspended in 0.1M, pH 8.8, of carbonate-bicarbonate buffer (Sigma USA). The coating solution was removed, washed three times with washing buffer (1×PBS) and 200 μl of blocking solution (freshly prepared 1% I Block, Tropix, USA) per well was added and incubated for 1 hour at 37° C. Coated and blocked plates can be stored at −20° C. for a month before use.
(§7) Tested samples diluted in the blocking solution were mixed in a separate tube with 1 μg/ml (final concentration) of the appropriate biotinylated peptide and the mixture was incubated for 1 hour at 37° C. 100 μl from each reaction tube was then transferred to the blocked microtiter plate and incubated at 37° C. for ½ hour. A 100 μl of 1:5000 Alkaline Phosphatase conjugate goat anti human IgG (Heavy and light chain from Jackson, USA) diluted in the blocking buffer was applied into the microtiter well and incubated for 1 hour. […] The measurement was done photometrically at 405 nm.

mice = settings: responder mice (BALB/c, SJL), cited from earlier work
[4] = tested on: immunoglobulin eluted from a peptide column bearing the peptide 706; experiment: ELISA of peptide column eluate with biotinylated peptides (706 column); format: binding, human; settings: FIG. 3; biotinylated peptide 1 μg/ml
Protocol: as §5, §6, §7

[5] = anti-Id 10 μg/ml, plates coated with 10 ug/ml peptide

Row | Substance | binding of anti-Id to peptide (OD at 405 nm) ([1]; anti-Id 1 μg/ml) | binding of anti-Id to peptide (OD at 405 nm) ([1]; anti-Id 2.5 μg/ml) | binding of anti-Id to peptide (OD at 405 nm) ([1]; anti-Id 5 μg/ml) | binding of anti-Id to peptide (OD at 405 nm) [1, 5] | binding of control IgG to peptide (OD at 405 nm) ([2]; control IgG 1 μg/ml) | binding of control IgG to peptide (OD at 405 nm) ([2]; control IgG 5 μg/ml) | specificity of the elution peak from the column bound with the peptide [3] | induction of SLE-like disease in mice (mice) | induction of SLE-like disease in mice (mice; listed as pCDR3) | binding of 706 column eluate to biotinylated peptide [4] | binding of 707 column eluate to biotinylated peptide ([3]; biotinylated peptide 1 μg/ml)
1 | KYKRKYP [Pep 15] | 0.049 | 0.067 | 0.117 | 0.287 | 0.037 | 0.068 |  |  |  |  | 
2 | YYCARFLWEPYAMDYWGQGS [Pep 707, 16.6 monoclonal antibody CDR3-based peptide] |  |  |  |  |  |  | reacted in a non-specific manner | can cause SLE symptoms | induced a mild SLE-like disease |  | 
3 | DWLYSRS [Pep 13] | 0.112 | 0.099 | 0.387 | 0.748 | 0.069 | 0.078 |  |  |  |  | 
4 | GIWELSKEPSQKVWQMYYGT [Pep R706, reverse order of CDR1, used as a control] |  |  |  |  |  |  |  |  |  | not | reacted even more strongly

Source: US8450067B2, “Method for obtaining anti-idiotype antibodies” (Omrix Biopharmaceuticals Inc., priority 2002, dated 2013)
